# Data as given in US11643428B2, “Therapeutic drug for neurodegenerative disease and application thereof” (SHANGHAI PHARMACEUTICALS HOLDING CO., LTD., priority 2018, dated 2023).
# System: neuroblastoma cells SK-N-SH
# Assay: Total Aβ in supernatant of SK-N-SH cells by ELISA
# Assay type: cell-based
# Details: 30, 100, 300 μM, 24 hours
# Description: Culture of neuroblastoma cells SK-N-SH and Aβ detection: SK-N-SH cells were cultured in DMEM, plated to 24 well plates and cultured for 24 hours, then PL201 (0, 30, 100, and 300 μM) was added. After co-incubation for 24 hours, the protein level of total Aβ in supernatant was detected by ELISA.
# Culture of neuroblastoma cells SK-N-SH and Aβ detection: SK-N-SH cells were cultured in DMEM, plated to 24 well plates and cultured for 24 hours, then PL202 (0, 30, and 100 μM) was added. After co-incubation for 24 hours, protein level of total Aβ in supernatant was detected by ELISA.
# Culture of neuroblastoma cells SK-N-SH and Aβ detection: SK-N-SH cells were cultured in DMEM, plated to 24 well plates and cultured for 24 hours, then PL171 (300 μM) was added. After co-incubation for 24 hours, protein level of total Aβ in supernatant was detected by ELISA.
# Culture of neuroblastoma cells SK-N-SH and Aβ detection: SK-N-SH cells were cultured in DMEM, plated to 24 well plates and cultured for 24 hours, then PL172 (300 μM) was added. After co-incubation for 24 hours, protein level of total Aβ in supernatant was detected by ELISA.
compound,measurement,value
"COc1cc(/C=C/C(=O)OC2OC(C)C(O)C(O)C2O)ccc1O [PL201, (α-L-rhamnopyranosyl) ferulic acid ester]",Aβ production (total Aβ in supernatant),significantly inhibited
